# Data taken from paper PMC8703934, “Lytic Polysaccharide Monooxygenase from Talaromyces amestolkiae with an Enigmatic Linker-like Region: The Role of This Enzyme on Cellulose Saccharification” (International Journal of Molecular Sciences, 2021).
# Columns and labels:
# TamAA9A-CD = biological target: T1, TamAA9A-CD (Talaromyces amestolkiae, UniProt A0A364LE17); assay: spectrophotometric oxidation to coerulignone at […] nm, Michaelis-Menten fit; assay type: biochemical; settings: 2 mM H2O2 as co-substrate; copper-saturated enzyme; 100 mM sodium phosphate pH 6; substrate range 1.25-100 mM
# T1 construct: gene BHQ10_010049; native signal peptide (removed), no tag mentioned; secreted from Pichia pastoris X-33; theoretical 24 kDa, about 30 kDa glycosylated; copper-saturated; mature N-terminus HGYVQN from primer
# T1 sequence (A0A364LE17 entry or part of it): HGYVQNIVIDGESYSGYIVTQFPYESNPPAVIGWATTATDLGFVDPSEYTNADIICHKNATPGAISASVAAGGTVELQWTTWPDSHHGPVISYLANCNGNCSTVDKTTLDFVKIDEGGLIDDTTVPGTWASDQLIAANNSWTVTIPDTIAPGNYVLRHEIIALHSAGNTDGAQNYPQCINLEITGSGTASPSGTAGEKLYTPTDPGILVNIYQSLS
# TamAA9A-CBM = biological target: T2, TamAA9A-CBM (Talaromyces amestolkiae, UniProt A0A364LE17); assay: as above; assay type: biochemical; settings: 2 mM H2O2 as co-substrate; copper-saturated enzyme; 100 mM sodium phosphate pH 6; substrate range 1.25-100 mM; printed kcat/Km (0.003) does not match printed kcat and Km
# T2 construct: gene BHQ10_010049; native signal peptide (removed); secreted from Pichia pastoris X-33; theoretical 34 kDa, 75-100 kDa glycosylated; copper-saturated; with Beta-glucosidase BGL-2 (CBM1 domain only)
# T2 sequence (A0A364LE17 entry or part of it): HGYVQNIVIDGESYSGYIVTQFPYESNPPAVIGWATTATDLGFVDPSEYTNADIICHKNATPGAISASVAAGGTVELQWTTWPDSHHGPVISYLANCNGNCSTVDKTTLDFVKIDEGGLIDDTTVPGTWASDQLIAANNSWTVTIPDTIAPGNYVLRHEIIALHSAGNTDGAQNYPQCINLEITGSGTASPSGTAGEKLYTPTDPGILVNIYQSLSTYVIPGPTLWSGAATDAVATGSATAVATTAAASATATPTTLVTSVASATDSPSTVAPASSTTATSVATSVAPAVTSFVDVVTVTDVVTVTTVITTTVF
compound,measurement,setting,value
"COc1cccc(OC)c1O [2,6-DMP, 2,6-dimethoxyphenol]",Km,TamAA9A-CD,87.7 ± 0.7 mM
same,Km,TamAA9A-CBM,85.68 ± 0.7 mM
